The values below come from US20220396565A1 (Hoffmann-La Roche Inc., priority 2020, published 2022).

Where a name gives a salt, the structure may show the parent alone.

The first experiment relates to Acinetobacter baumannii ATCC17961. The experiment can be described thus: Antimicrobial susceptibility testing: 90% growth inhibitory concentration (IC90) determination, Iso-Sensitest broth. The experiment is classed as cell-based. As to conditions: Acinetobacter baumannii, ATCC17961, 90% growth inhibitory concentration, Acinetobacter baumannii ATCC17961, Iso-Sensitest broth; read-out: ATCC 17961 IC90. The protocol:
The in vitro antimicrobial activity of the compounds was determined according to the following procedure:
The assay used a 10-points Iso-Sensitest broth medium to measure quantitatively the in vitro activity of the compounds against Acinetobacter baumannii ATCC17978 or ATCC17961.
Stock compounds in DMSO were serially twofold diluted (e.g. range from 10 to 0.02 μM final concentration) in 384 wells microtiter plates and inoculated with 49 μl the bacterial suspension in Iso-Sensitest medium to have a final cell concentration of ˜5×10^(5) CFU/ml in a final volume/well of 50 ul/well. Microtiter plates were incubated at 35±2° C.
Bacterial cell growth was determined with the measurement of optical density at k=600 nm each 20 minutes over a time course of 16 h. Growth inhibition was calculated during the logarithmic growth of the bacterial cells with determination of the concentration inhibiting 50% (IC50) and 90% (IC90) of the growth.
Table 1 provides the 90% growth inhibitory concentrations (IC90) in micromoles per liter of the compounds of present invention obtained against the strain Acinetobacter baumannii ATCC17978 or ATCC17961.
For orientation: IC90 means the point of the concentration-response curve where the effect stands at 90%. Consider `COc1ccc(-c2cnc(C(=O)Nc3ccc(C(=O)N4CCC(C(=O)N[C@@H]5CNC[C@H]5O)CC4)c(Cl)c3)n2C)c(F)c1F` [Example 60, 1-[2-chloro-4-[[5-(2,3-difluoro-4-methoxy-phenyl)-1-methyl-imidazole-2-carbonyl]amino]benzoyl]-N-[(3R,4R)-4-hydroxypyrrolidin-3-yl]piperidine-4-carboxamide formate], for which the IC90 amounted to 50 nM. For the compound `Cn1c(-c2ccc(OC(F)F)c(F)c2F)cnc1C(=O)Nc1ccc(C(=O)N2CCC(C(=O)N[C@H]3[C@@H]4CNC[C@@H]43)CC2)c(Cl)c1` [Example 61, N-[(1S,5R)-3-azabicyclo[3.1.0]hexan-6-yl]-1-[2-chloro-4-[[5-[4-(difluoromethoxy)-2,3-difluoro-phenyl]-1-methyl-imidazole-2-carbonyl]amino]benzoyl] piperidine-4-carboxamide formate], the IC90 was found to be 60 nM.

Turning to `Cn1c(-c2ccc(OCF)c(F)c2Cl)cnc1C(=O)Nc1ccc(C(=O)N2CCC(C(=O)NC[C@@H]3CCNC3)CC2)c(Cl)c1` [Example 62, 1-[2-chloro-4-[[5-[2-chloro-3-fluoro-4-(fluoromethoxy)phenyl]-1-methyl-imidazole-2-carbonyl]amino]benzoyl]-N-[[(3R)-pyrrolidin-3-yl]methyl]piperidine-4-carboxamide formate], the IC90 stood at 60 nM. On the same count and under the same terms, then `COc1ccc(-c2cnc(C(=O)Nc3ccc(C(=O)N4CCC(C(=O)NCC5CCN5)CC4)c(Cl)c3)n2C)c(F)c1F` (stereo not drawn) [Example 63, N-(azetidin-2-ylmethyl)-1-[2-chloro-4-[[5-(2,3-difluoro-4-methoxy-phenyl)-1-methyl-imidazole-2-carbonyl]amino]benzoyl] piperidine-4-carboxamide formate], with 90 nM; and `COc1ccc(-c2cnc(C(=O)Nc3ccc(C(=O)N4CCC(C(=O)N[C@@H]5CCNC5)CC4)c(Cl)c3)n2C)c(F)c1F` [Example 64, 1-[2-chloro-4-[[5-(2,3-difluoro-4-methoxy-phenyl)-1-methyl-imidazole-2-carbonyl]amino]benzoyl]-N-[(3R)-pyrrolidin-3-yl]piperidine-4-carboxamide formate], with 60 nM.

On to `Cn1c(-c2ccc(OCF)c(F)c2Cl)cnc1C(=O)Nc1ccc(C(=O)N2CCC(C(=O)N[C@H]3CCNC3)CC2)c(Cl)c1` [Example 65, 1-[2-chloro-4-[[5-[2-chloro-3-fluoro-4-(fluoromethoxy)phenyl]-1-methyl-imidazole-2-carbonyl]amino]benzoyl]-N-[(3S)-pyrrolidin-3-yl]piperidine-4-carboxamide formate], for which the IC90 was determined as 50 nM.

On to `COc1ccc(-c2cnc(C(=O)Nc3ccc(C(=O)N4CC(C(=O)N5CC(CN)C5)C4)c(Cl)c3)n2C)c(F)c1F` [Example 66, N-[4-[3-[3-(aminomethyl)azetidine-1-carbonyl]azetidine-1-carbonyl]-3-chloro-phenyl]-5-(2,3-difluoro-4-methoxy-phenyl)-1-methyl-imidazole-2-carboxamide formate], for which the IC90 stood at 140 nM. With `COc1ccc(-c2cnc(C(=O)Nc3ccc(C(=O)N4CCC(C(=O)NCCC(=O)O)CC4)c(Cl)c3)n2C)c(F)c1F` [Example 67, 3-[[1-[2-chloro-4-[[5-(2,3-difluoro-4-methoxy-phenyl)-1-methyl-imidazole-2-carbonyl]amino]benzoyl]piperidine-4-carbonyl]amino]propanoic acid], the IC90 worked out at 3300 nM. The same measure, in the same setting: then `COc1ccc(-c2cnc(C(=O)Nc3ccc(C(=O)N4CCC(C(=O)NCCCC(=O)O)CC4)c(Cl)c3)n2C)c(F)c1F` [Example 68, 4-[[1-[2-chloro-4-[[5-(2,3-difluoro-4-methoxy-phenyl)-1-methyl-imidazole-2-carbonyl]amino]benzoyl]piperidine-4-carbonyl]amino]butanoic acid], with 2100 nM; and `COc1ccc(-c2cnc(C(=O)Nc3ccc(C(=O)N4CC(C(=O)N5CCNCC5)C4)c(Cl)c3)n2C)c(F)c1F` [Example 69, N-[3-chloro-4-[3-(piperazine-1-carbonyl)azetidine-1-carbonyl]phenyl]-5-(2,3-difluoro-4-methoxy-phenyl)-1-methyl-imidazole-2-carboxamide formate], with 120 nM; and `COc1ccc(-c2cnc(C(=O)Nc3ccc(C(=O)N4CC(C(=O)N5C[C@H]6CNC[C@H]6C5)C4)c(Cl)c3)n2C)c(F)c1F` [Example 70, N-[4-[3-[(3aR,6aS)-2,3,3a,4,6,6a-hexahydro-1H-pyrrolo[3,4-c]pyrrole-5-carbonyl]azetidine-1-carbonyl]-3-chloro-phenyl]-5-(2,3-difluoro-4-methoxy-phenyl)-1-methyl-imidazole-2-carboxamide formate], with 140 nM.

As to `COc1ccc(-c2cnc(C(=O)Nc3ccc(C(=O)N4CCC(C(=O)N5C[C@H]6CCN[C@H]6C5)C4)c(Cl)c3)n2C)c(F)c1F` (stereo partly drawn) [Example 71, N-[4-[3-[(3aR,6aR)-2,3,3a,4,6,6a-hexahydro-1H-pyrrolo[3,4-b]pyrrole-5-carbonyl]pyrrolidine-1-carbonyl]-3-chloro-phenyl]-5-(2,3-difluoro-4-methoxy-phenyl)-1-methyl-imidazole-2-carboxamide formate], the IC90 turned out to be 470 nM. The same measure, in the same setting: then `COc1ccc(-c2cnc(C(=O)Nc3ccc(C(=O)N4CCC(C(=O)N[C@H]5CNC[C@@H]5O)CC4)c(Cl)c3)n2C)c(F)c1F` [Example 72, 1-[2-chloro-4-[[5-(2,3-difluoro-4-methoxy-phenyl)-1-methyl-imidazole-2-carbonyl]amino]benzoyl]-N-[(3S,4S)-4-hydroxypyrrolidin-3-yl]piperidine-4-carboxamide formate], with 50 nM; and `Cc1cc(NC(=O)c2ncc(-c3ccc(OCC#N)c(F)c3F)n2C)ccc1C(=O)N1CCC(C(=O)N2CCO[C@H](CN)C2)CC1` [Example 83, (R)-N-(4-(4-(2-(aminomethyl)morpholine-4-carbonyl)piperidine-1-carbonyl)-3-methylphenyl)-5-(4-(cyanomethoxy)-2,3-difluorophenyl)-1-methyl-1H-imidazole-2-carboxamide 2,2,2-trifluoroacetate], with 170 nM; and `Cn1c(-c2ccc(OCC#N)c(F)c2F)cnc1C(=O)Nc1ccc(C(=O)N2CCC(C(=O)N3CC4(CNC4)C3)CC2)c(Cl)c1` [Example 85, N-(4-(4-(2,6-diazaspiro[3.3]heptane-2-carbonyl)piperidine-1-carbonyl)-3-chlorophenyl)-5-(4-(cyanomethoxy)-2,3-difluorophenyl)-1-methyl-1H-imidazole-2-carboxamide 2,2,2-trifluoroacetate], with 150 nM. As to `Cc1cc(NC(=O)c2ncc(-c3ccc(OCC#N)c(F)c3F)n2C)ccc1C(=O)N1CCC(C(=O)N2CCO[C@@H](CN)C2)CC1` [Example 87, (S)-N-(4-(4-(2-(aminomethyl)morpholine-4-carbonyl)piperidine-1-carbonyl)-3-methylphenyl)-5-(4-(cyanomethoxy)-2,3-difluorophenyl)-1-methyl-1H-imidazole-2-carboxamide 2,2,2-trifluoroacetate], the IC90 came to 120 nM. As to `Cn1c(-c2ccc(OCF)c(F)c2F)cnc1C(=O)Nc1ccc(C(=O)N2CCC(C(=O)NC3CCNCC3)CC2)c(Cl)c1` [Example 89, 1-(2-chloro-4-(5-(2,3-difluoro-4-(fluoromethoxy)phenyl)-1-methyl-1H-imidazole-2-carboxamido)benzoyl)-N-(piperidin-4-yl)piperidine-4-carboxamide 2,2,2-trifluoroacetate], the IC90 came out at 50 nM.

Still in this experiment, the particulars now being: Acinetobacter baumannii, ATCC17961, read-out: ATCC 17961 IC90.
With `CNCCNC(=O)C1CCN(C(=O)c2ccc(NC(=O)c3ncc(-c4ccc(OCC#N)c(F)c4F)n3C)cc2Cl)CC1` [Example 82, 1-(2-chloro-4-(5-(4-(cyanomethoxy)-2,3-difluorophenyl)-1-methyl-1H-imidazole-2-carboxamido)benzoyl)-N-(2-(methylamino)ethyl) piperidine-4-carboxamide formate], the IC90 is 70 nM.

As to `Cn1c(-c2ccc(OCC#N)c(F)c2F)cnc1C(=O)Nc1ccc(C(=O)N2CCC(C(=O)NCC(O)CN)CC2)c(Cl)c1` (stereo not drawn) [Example 84, N-(3-amino-2-hydroxypropyl)-1-(2-chloro-4-(5-(4-(cyanomethoxy)-2,3-difluorophenyl)-1-methyl-1H-imidazole-2-carboxamido)benzoyl) piperidine-4-carboxamide 2,2,2-trifluoroacetate], the IC90 came out at 90 nM. On the same count and under the same terms, then `Cn1c(-c2ccc(OCC#N)c(F)c2F)cnc1C(=O)Nc1ccc(C(=O)N2CCC(C(=O)N3CCN[C@H](CO)C3)CC2)c(Cl)c1` [Example 86, (S)-N-(3-ehloro-4-(4-(3-(hydroxymethyl)piperazine-1-carbonyl)piperidine-1-carbonyl)phenyl)-5-(4-(cyanomethoxy)-2,3-difluorophenyl)-1-methyl-1H-imidazole-2-carboxamide 2,2,2-trifluoroacetate], with 100 nM; and `Cn1c(-c2ccc(OCF)c(F)c2F)cnc1C(=O)Nc1ccc(C(=O)N2CCC(C(=O)NCCN)CC2)c(Cl)c1` [Example 88, N-(2-aminoethyl)-1-(2-chloro-4-(5-(2,3-difluoro-4-(fluoromethoxy)phenyl)-1-methyl-1H-imidazole-2-carboxamido)benzoyl) piperidine-4-carboxamide 2,2,2-trifluoroacetate], with 50 nM.
